Source: EP0934249B1, “CONFORMATIONALLY RESTRICTED POLYAMINES AND THEIR USE AS ANTINEOPLASTIC AGENTS” (WISCONSIN ALUMNI RESEARCH FOUNDATION, priority 1996, dated 1998)
Where a name gives a salt, the structure may show the parent alone.

Assays:
Type in all cases: cell-based
MCF7 [1] = assay: colony formation (plating efficiency) cell survival assay, standard protocol of Examples 1-8; details: Homo sapiens; survival of cultured breast cancer cells MCF7; 4 hours drug exposure, colonies counted day 15-20; read-out: ED50 (the source's name)
Method: (§1) Human breast cancer cell line MCF7 was grown in Richter's Improved Modified Eagle's Medium supplemented with 10% fetal bovine serum (FBS) and 2.2 g/L sodium bicarbonate. Human brain cancer cell line U251MG-NCI was grown in Dulbecco's Modified Eagle's Medium supplemented with 10% FBS. Human lung cancer cell line A549 was grown in Ham's F-12K medium (Fisher Scientific, Itasca, Illinois), supplemented with 10% FBS and 2 mM L-glutamine. Human colon cancer cell line HT29 was cultured in McCoy's 5A medium (Gibco, BRL, Gaithersburg, Maryland), supplemented with 10% FBS. Human prostate cancer cell line PC3 was grown in Dulbecco's Modified Eagles Medium supplemented with 5% FBS. The A549 and MCF7 cell lines were cultured in 100 units/mL penicillin and 100 µg/mL streptomycin. HT29 and U251MG cell lines were grown in 50 µg/mL gentamycin. PC3 cell lines were maintained in 1% antibiotic-antimycotic solution (Sigma, St. Louis, Missouri). The cell cultures were maintained at 37°C in 5% CO2/95% humidified air. All cell cultures are available from the American Type Culture Collection, Rockville, Maryland.
Ten standard culture flasks for each drug to be tested were plated with 5 x 10^5 cells of a given type in 5 mL of media and allowed to incubate for 16-24 hours at 37°C.
Fresh stocks of the compounds to be evaluated are prepared. For each drug, two of the ten culture flasks prepared on Day 1 are used as controls. The control flasks are treated with solvent only. Four flasks for each compound are then treated with serially-diluted concentrations of the compound. The remaining flasks are left untouched. The cells are incubated for 4 hours at 37°C.
After 4 hours the control flasks are counted (2 counts for each flask) and the cells per mL calculated based on the average of the control counts. The cells are then re-plated into six 60 mm dishes for each flask from dilutions based on the cells/mL of the control. (In the various test runs, cell concentrations ranged from approximately 50 to approximately 800 cells per mL.)
The cells are monitored for colony formation. When visible, the cells are stained with 0.5% crystal violet (in 95% EtOH) and counted. The plating efficiency for each dish is then calculated. The plating efficiencies of the six dishes for each flask are averaged and the standard deviation is calculated. The fraction of cell survival at each concentration is determined based on the controls.

A549 = assay: MTT assay, percent cell survival; details: Homo sapiens, A549, 144 h; drug concentration that killed 50% of the cultured cells; MTT six days after drug treatment; read-out: ID50(µM) A549
Method: as §1
(§2) Here, a conventional MTT assay was used to evaluate percent cell survival. Exponentially growing monolayer cells were plated in 96-well plates at a density of 500 cells per well and allowed to grow for 24 hours. Serial dilutions of the drugs were added to the wells. Six days after drug treatment, 25 µl of MTT solution (5 mg/ml) was added to each well and incubated for 4 hours at 37°C. Then 100 µl of lysis buffer (20% sodium dodecyl sulfate, 50% DMF, and 0.8% acetic acid, pH 4.7) was added to each well and incubated for an additional 22 hours. A microplate reader ("EMAX"-brand, Molecular Devices, Sunnyvale, California) set at 570 nm was used to determine the optical density of the cultures. Results are expressed as a ratio of the optical density in drug-treated wells to the optical density in wells treated with vehicle only.
(§3) The ID50 is the drug concentration that killed 50% of the cultured cells.

HT-29 = assay: MTT assay, percent cell survival; details: Homo sapiens, HT-29, 144 h; drug concentration that killed 50% of the cultured cells; MTT six days after drug treatment; read-out: ID50(µM) HT-29
Method: as §1, §2, §3

MCF7 [2] = assay: MTT assay, percent cell survival; details: Homo sapiens, MCF7, 144 h; drug concentration that killed 50% of the cultured cells; MTT six days after drug treatment; read-out: ID50(µM) MCF7
Method: as §1, §2, §3

PC-3 = assay: MTT assay, percent cell survival; details: Homo sapiens, PC-3, 144 h; drug concentration that killed 50% of the cultured cells; MTT six days after drug treatment; read-out: ID50(µM) PC-3
Method: as §1, §2, §3

U251MG NCl = assay: MTT assay, percent cell survival; details: Homo sapiens, U-251, 144 h; drug concentration that killed 50% of the cultured cells; MTT six days after drug treatment; read-out: ID50(µM) U251MG NCl
Method: as §1, §2, §3

| Compound | EC50 (MCF7 [1]) [µM] | IC50 (A549) [µM] | IC50 (HT-29) [µM] | IC50 (MCF7 [2]) [µM] | IC50 (PC-3) [µM] | IC50 (U251MG NCl) [µM] |
| --- | --- | --- | --- | --- | --- | --- |
| CCNCCCNC/C=C/CNCCCNCC [SL-11048, N,Nl-bis(3-ethylaminopropyl)-(E)-but-2-ene-1,4-diamine tetrahydrochloride, reference compound] | 1.49 | 0.26 | 1.4 | > 31.2 | 1.4 | 2 |
| CCNCCCNC[C@H]1CC[C@H]1CNCCCNCC [SL-11043, N-Ethyl-N'-(2-(3'-ethylamino-propylaminomethyl)-cis-cyclobutylmethyl)-propanel,3-diamine tetrahydrochloride] | 1.64 |  | 1.5 | 25.5 | > 31.2 |  |
| CCNCCCNC/C=C\CNCCCNCC [SL-11047, N,N^1-bis(3-ethylaminapropyl)-(Z)-but-2-ene-1,4-diamine tetrahydrochloride] | 1.49 | 0.25 | 1.6 | 9.5 | 3.6 | 0.55 |
| CCNCCCNCC1CCC1CNCCCNCC (stereo not drawn) [SL-11044, N-Ethyl-N'-(2-(3'-ethylamino-propylaminomethyl)-trans-cyclobutylmethyl)-propane1,3-diaminetetrahydrochloride] | 1.79 |  | 1.6 | > 31.2 | > 31.2 | 0.12 |
| CCNCCCNCC1CC1CNCCCNCC (stereo not drawn) [SL-11038, N-Ethyl-N'-(2-(3'-ethylamino-propylaminomethyl)-trans-cyclopropylmethyl)-propane-1,3-diamine tetrahydrochloride] | 1.34 | 0.25 | 1.4 | > 31.2 | 12.4 |  |
| CCNCCCNC[C@@H]1C[C@@H]1CNCCCNCC [SL-11037, N-Ethyl-N'-(2-(3'-ethylamino-propylaminomethyl)-cis-cyclopropylmethyl)-propane 1,3-diamine tetrahydrochloride] | 1.64 | 0.12 | 1.6 | > 31.2 | 7.4 |  |
